Converted amounts (≈) assume the structure as drawn. “And” between values parts separate entries of the source, which are not always exact repeats. Identical values can stand only once. Like-named read-outs stand apart in the source and are kept apart here.
Key:
M. chelonae = assay: MIC in nontuberculosis mycobacteria (microbroth dilution, resazurin); format: cell-based, Mycobacterium chelonae; conditions: Mycobacteroides chelonae
M. abscessus = assay: as above; format: cell-based, Mycobacterium abscessus; conditions: Mycobacteroides abscessus
[1] = tested on: human hepatocyte/liver (HepG2; ATCC #HB8065) cells; assay: In vitro cytotoxicity (PrestoBlue cell viability), HepG2; format: cell-based; conditions: Homo sapiens, HepG2, 72 h, read-out: Cell viability IC50, HepG2
MRSA ATCC 43300 = assay: MIC against methicillin resistant Staphylococcus aureus (MRSA); conditions: read-out: MRSA MIC, ATCC 43300
[2] = tested on: M. Tuberculosis Erdman or H37Rv vs VERO or HepG2 cells; assay: Selectivity Index (mammalian cell IC50 / bacterial MIC); set-up: species or system Mycobacterium tuberculosis
M.tb H37Rv = assay: Broth microdilution MIC with Alamar blue endpoint (MABA) / OD600; format: cell-based, Mycobacterium tuberculosis
[3] = tested on: African green monkey kidney (Vero; ATCC # CCL81) cells; assay: In vitro cytotoxicity (PrestoBlue cell viability), Vero; format: cell-based; conditions: Chlorocebus sabaeus, Vero, 72 h, read-out: Cell viability IC50, VERO
[4] = tested on: mitochondrial protein synthesis (COX-1/SDH-A ratio) in H9C2 rat heart myoblast cells; assay: Mitochondrial protein synthesis inhibition (MitoBiogenesis in-cell ELISA, COX-1/SDH-A); format: cell-based; conditions: 120 h, five days, read-out: MPS IC50
[5] = Aqueous solubility (visually clear solutions); format: physicochemical; conditions: aqueous, 1 N HCl and/or water added
Experimental: Working stocks of the compounds were prepared as follows: to an aliquot of a compound (free base) in a powder form 1-1.5 equivalents of HCl in the form of 1 N aqueous solution was added, and the mixture was vortexed until homogeneity. To the resulting cake or syrup, water was added typically to the final 10 mg/ml, and complete dissolution was observed. In some instances, 0.95 equivalents of HCl were added to the free base form of the drug, and 20 mg/ml stock solution was prepared.
Aqueous solubility of the compounds of the present disclosure is illustrated by the following observations of obtaining visually clear solutions: […]

M.avium = assay: MIC in nontuberculosis mycobacteria (microbroth dilution, resazurin); format: cell-based, Mycobacterium avium; conditions: for MIC: Mycobacterium avium
[6] = In vitro burst release of liposomal drug in plasma, human; conditions: mouse or human plasma, 20 min 37° C., 0.5 M AS liposomes, 40-65 mol% Chol (FIG. 5A, 5B)
Experimental: The plasma was thawed, if necessary, adjusted to pH 7.4 with 1 N HCl, and sequentially filtered through glass microfiber filters (GF/C), 1 µm polyethersulfone (PES), and 0.22 µm PES filters. Plasma (80 µl) was mixed with liposomal drug formulations (20 µl) in a 0.5 ml Eppendorf tube. The mixture was subsequently incubated for 20 min at 37° C. and then put into chilled water.
Incubation time was 20 min.

MRSA 880 NR-49120 = assay: MIC against methicillin resistant Staphylococcus aureus (MRSA); conditions: read-out: MRSA MIC, 880 NR-49120
M. massiliense = assay: MIC in nontuberculosis mycobacteria (microbroth dilution, resazurin); format: cell-based, Mycobacterium massiliense; conditions: Mycobacteroides abscessus
M. kansasii = assay: as above; format: cell-based; conditions: Mycobacterium kansasii
M.tb Erdman = assay: Broth microdilution MIC with Alamar blue endpoint (MABA) / OD600; format: cell-based, Mycobacterium tuberculosis
[7] = Liposome loading / encapsulation efficiency (General protocol); conditions: for maximum drug load: HSPC:Chol 3:2, 0.5 mol% PEG-DSG (Example 14)
MRSA ATCC BAA-1556 = assay: MIC against methicillin resistant Staphylococcus aureus (MRSA)
M. Tuberculosis Erdman [8] = assay: Efficacy of monotherapy in chronic Balb/c model of tuberculosis (lung and spleen CFU); format: in vivo, Mycobacterium tuberculosis (in Balb/c mice)
M. Tuberculosis Erdman [9] = conditions: eight weeks, Balb/c and C3HeB/FeJ mice; cited from earlier work
in vivo = conditions: male, Sprague-Dawley, rat
[10] = male, Sprague-Dawley, rat, in vivo, 50 mg/kg, 8 weeks
Experimental: The control group was injected once weekly for 8 weeks with an equal volume of HEPES buffered saline (HBS, pH 7). Before the endpoint of the study animals were humanely euthanized by exsanguination from the abdominal aorta following isoflurane anesthesia. Blood and tissue samples were collected for evaluation of clinical pathology parameters. Representative samples of tissues were collected and preserved in 10% neutral buffered, embedded in paraffin, sectioned, mounted on glass slides, stained with hematoxylin and eosin, and evaluated for histopathology by a board-certified veterinary pathologist.
The following parameters and end points were also evaluated: mortality and moribundity check, clinical observations, body weights, food consumption, nerve conduction velocity (NCV) and muscle action potential (MAP), functional observation battery (FOB).

[11] = male, Sprague-Dawley, rat, in vivo, po, 50 mg/kg
[12] = Balb/c mice, 50 mg/kg, q1x5, oral gavage
[13] = Balb/c mice, 100 mg/kg, q1x5, oral gavage

CN(C)CCn1nnc(-c2ccc(-c3ccc(N4C[C@H](CN)OC4=O)cc3F)cn2)n1.Cl [AKG-28]
MIC (M. chelonae; M. chelonae strain 49): 0.06 µg/mL | MIC (M. chelonae; M. chelonae strain 69): 0.5 µg/mL | MIC (M. chelonae; M. chelonae strain 35752): 0.125 µg/mL | MIC (M. abscessus; M. abscessus sbsp. abscessus strain 21): 0.25 µg/mL | MIC (M. abscessus; M. abscessus sbsp. abscessus strain 1513): 32 µg/mL | MIC (M. abscessus; M. abscessus sbsp. abscessus strain 1948): 0.125 µg/mL | IC50 [1]: 13.4 µg/mL | MIC (MRSA ATCC 43300): > 50 µg/mL | Selectivity Index (SI) Erd/HepG2 [2]: 446.7 | Selectivity Index (SI) Erd/VERO [2]: 2766.7 | MIC (M.tb H37Rv; Mycobacterium tuberculosis, H37RV, read-out: MIC (H37Rv)): 0.015 µg/mL | MIC (M.tb H37Rv; Mycobacterium tuberculosis, H37RV, read-out: Mycobacterium tuberculosis MIC, H37Rv): 0.015 µg/mL | IC50 [3]: 83 µg/mL | IC50 [4]: 0.411 µg/mL | Concentration % (w/w) of free base (visually clear solution) [5]: 7.3 % (w/w) | potency relative to tedizolid in NTM species and strains (M.avium; M.avium, M. chelonae, M. abscessus and M. kansasii): generally more potent than tedizolid | MIC (M.avium; M. avium sbsp. avium strain 2285 R, read-out: MIC): 0.06 µg/mL | MIC (M.avium; M. avium sbsp. avium strain 2285 S): 0.125 µg/mL | MIC (M.avium; M. avium sbsp. avium strain 3993): 0.125 µg/mL | burst release phenomenon in plasma in vitro [6]: observed in human plasma for the formulations containing 40 mol.% cholesterol, but not for the formulations with 45 mol.% or more of cholesterol | MIC (MRSA 880 NR-49120): > 50 µg/mL | MIC (M. massiliense): 0.25 µg/mL | MIC (M. massiliense; CIP108297): 1 µg/mL | MIC (M. kansasii): 0.125 µg/mL | MIC (M. kansasii; M. kansasii strain 662, read-out: MIC): > 32 µg/mL | fold more potent than linezolid in killing M. Tuberculosis in vitro (M.tb Erdman; Erdmann strain): 33 fold | MIC (M.tb Erdman; Mycobacterium tuberculosis, ERDMAN, read-out: Mycobacterium tuberculosis MIC, Erdman): 0.03 µg/mL | maximum drug load ([7]; 0.5 M AS): 404-424 g/mol PhL | loading efficiency ([7]; 0.5 M AS, at drug loads of 302 (AKG-28) and 387-764 (AKG-38) g/mol PhL): quantitative loading | maximum drug load ([7]; 1 N TEA-SOS): 315-328 g/mol PhL | maximum loading efficiency ([7]; 1 N TEA-SOS, at drug load 250 (AKG-28) and 400-777 (AKG-38) g/mol PhL): 83.5% | liposome aggregation during drug loading ([7]; 30 mol% cholesterol, 1 N TEA-SOS, AKG-28: 5 mol% PEG-DSG or PEG-DSPE, AKG-38: 5 mol% PEG-DSPE): irreversibly aggregated during the drug loading | loading efficiency (from unencapsulated drug in pre-concentration diafiltrate) ([7]; scaled-up lots, HSPC:Chol:PEG-DSPE 45:55:2.25, 0.5 M AS, DL 250 (AKG-28) or 450 (AKG-38) g/mol): 99.1% and 99.3% | MIC (MRSA ATCC BAA-1556; read-out: MRSA MIC): > 50 µg/mL | MIC (MRSA ATCC BAA-1556; read-out: MRSA MIC, ATCC BAA-1556): > 50 µg/mL

CC(=O)NC[C@H]1CN(c2ccc(N3CCOCC3)c(F)c2)C(=O)O1 [Linezolid]
Lung Log CFU, 4 week (M. Tuberculosis Erdman [8]; [12]): 4.61 ± 0.31 Log CFU | Spleen Log CFU, 4 week (M. Tuberculosis Erdman [8]; [12]): 4.32 ± 0.28 Log CFU | Lung Log CFU, 2 week (M. Tuberculosis Erdman [8]; [13]): 5.58 ± 0.10 Log CFU | Lung Log CFU, 4 week (M. Tuberculosis Erdman [8]; [13]): 4.17 ± 0.21 Log CFU | Lung Log CFU, 8 week (M. Tuberculosis Erdman [8]; [13]): 2.45 ± 0.37 Log CFU | Spleen Log CFU, 2 week (M. Tuberculosis Erdman [8]; [13]): 4.53 ± 0.25 Log CFU | Spleen Log CFU, 4 week (M. Tuberculosis Erdman [8]; [13]): 3.90 ± 0.28 Log CFU | log10 CFU in lungs (M. Tuberculosis Erdman [8]; eight weeks, linezolid 100 mg/kg, detection limit 1.13): 2.45 log10 CFU | Log10 CFU reduction, lungs (M. Tuberculosis Erdman [8]; two weeks, Ls-AKG28 50 mg/kg twice weekly or 100 mg/kg once weekly, linezolid 100 mg/kg (q1x5)): less than 0.15 Log10 CFU | MIC (M.tb H37Rv; Mycobacterium tuberculosis, H37RV; as determined in Example 2; read-out: MIC (H37Rv)): 1 µg/mL (≈ 2.96 µM) | MIC (M.tb H37Rv; Mycobacterium tuberculosis, H37RV; read-out: Mycobacterium tuberculosis MIC, H37Rv): 1 µg/mL (≈ 2.96 µM) | log10 CFU counts, monotherapy (Lanoix et al. 2015) (M. Tuberculosis Erdman [9]): 4-6 log10 CFU | Vd (in vivo): 2.29 L/kg | AUC (in vivo; po, 50 mg/kg): 282 µg·h/mL | AUC0-inf (in vivo; po, 50 mg/kg): 374 µg·h/mL | AUC(0-t) (in vivo; po, 50 mg/kg): 282 µg·h/mL | Cmax (in vivo; po, 50 mg/kg): 26700 ng/mL | Tmax (in vivo; po, 50 mg/kg): 1 h | half-life (in vivo; po, 50 mg/kg): 11.9 h | MIC (M.tb Erdman; Mycobacterium tuberculosis, ERDMAN; read-out: Mycobacterium tuberculosis MIC, Erdman): 1 µg/mL (≈ 2.96 µM) | MIC (M.tb Erdman; Mycobacterium tuberculosis; M. tuberculosis Erdman / H37Rv, strains not separated; read-out: MIC): 2 µg/mL (≈ 5.93 µM) | EE ([7]; HSPC, 5 mol% PEG-lipid, 40-65 mol% Chol, DL0 250 (AKG-28) or 500 (AKG-38)): less than 5% | Kidney: Vacuolation, mesangial cell, glomerular, Minimal (animals) [10]: 0 | Kidney: Vacuolation, mesangial cell, glomerular, number of animals with the finding [10]: (0) | Liver: Degeneration, hepatocellular, centrilobular, Mild (animals) [10]: 0 | Liver: Degeneration, hepatocellular, centrilobular, Minimal (animals) [10]: 0 | Liver: Degeneration, hepatocellular, centrilobular, number of animals with the finding [10]: (0) | Liver: Single cell necrosis, centrilobular, Minimal (animals) [10]: 2 | Liver: Single cell necrosis, centrilobular, number of animals with the finding [10]: (2) | Spleen: Accumulation, basophilic material, Mild (animals) [10]: 0 | Spleen: Accumulation, basophilic material, Minimal (animals) [10]: 0 | Spleen: Accumulation, basophilic material, number of animals with the finding [10]: (0) | Spleen: Vacuolation, macrophages, Mild (animals) [10]: 0 | Spleen: Vacuolation, macrophages, Minimal (animals) [10]: 0 | Spleen: Vacuolation, macrophages, Moderate (animals) [10]: 0 | Spleen: Vacuolation, macrophages, number of animals with the finding [10]: (0) | AUC0-inf [11]: 373.53 µg·h/mL | Clearance [11]: 2.231 mL/min/kg | T ½ [11]: 11.86 h | Vd [11]: 2,291.26 mL/kg

From patent US20230348447A1, “OXAZOLIDINONE COMPOUNDS, LIPOSOME COMPOSITIONS COMPRISING OXAZOLIDINONE COMPOUNDS AND METHOD OF USE THEREOF” (priority 2020, published 2023)
